# Target: T1, HER2 (Homo sapiens, UniProt P04626)
# T1 construct: endogenous in cells; host or cells: Calu3 tumor cell line
# Test: Inhibition of HER2 phosphorylation in Calu3 tumor cell line
# Type: cell-based
# Details: Calu-3; compound concentration 1 μM; Calu3 cells, 16 h incubation; pY 1248 in HER2; percentage of the DMSO treated control; read-out: Percent inhibition of HER2-phosphorylation
# Description: Inhibition of HER2 Phosphorylation in Calu3 Tumor Cell Line
# 2×10^5 Calu3 cells per well were plated in a 12-well plate. After 4 days cells were starved for 16 h in DMEM(Dulbecco's Modified Eagle Medium)/0.5% FCS(Fetal Calf Serum)/1% Glutamine. During this time cells were incubated with 1 μM of the compound. Afterwards cells were lysed in lyses buffer containing 1% Triton, 10% Glycerol, 1 mM EGTA, 1.5 mM MgCl2, 150 mM NaCl, 50 mM Hepes pH 7.5, 1 mM PMSF, 10 μg/mL Aprotinin and […] Orthovanadate. Cell lysates were analyzed on a SDS PAGE and after transfer to a nitrocellulose membrane detected with an antibody specifically recognizing the pY 1248 in HER2. Inhibition of HER2 phosphorylation is calculated as percentage of the DMSO treated control. This percentage is calculated according to the following formula: Inhibition in %=100−(Phosphorylated-HER2-Signal of Test Sample*100/Phosphorylated-HER2-Signal DMSO-control).
# T1 sequence (P04626 23-1255): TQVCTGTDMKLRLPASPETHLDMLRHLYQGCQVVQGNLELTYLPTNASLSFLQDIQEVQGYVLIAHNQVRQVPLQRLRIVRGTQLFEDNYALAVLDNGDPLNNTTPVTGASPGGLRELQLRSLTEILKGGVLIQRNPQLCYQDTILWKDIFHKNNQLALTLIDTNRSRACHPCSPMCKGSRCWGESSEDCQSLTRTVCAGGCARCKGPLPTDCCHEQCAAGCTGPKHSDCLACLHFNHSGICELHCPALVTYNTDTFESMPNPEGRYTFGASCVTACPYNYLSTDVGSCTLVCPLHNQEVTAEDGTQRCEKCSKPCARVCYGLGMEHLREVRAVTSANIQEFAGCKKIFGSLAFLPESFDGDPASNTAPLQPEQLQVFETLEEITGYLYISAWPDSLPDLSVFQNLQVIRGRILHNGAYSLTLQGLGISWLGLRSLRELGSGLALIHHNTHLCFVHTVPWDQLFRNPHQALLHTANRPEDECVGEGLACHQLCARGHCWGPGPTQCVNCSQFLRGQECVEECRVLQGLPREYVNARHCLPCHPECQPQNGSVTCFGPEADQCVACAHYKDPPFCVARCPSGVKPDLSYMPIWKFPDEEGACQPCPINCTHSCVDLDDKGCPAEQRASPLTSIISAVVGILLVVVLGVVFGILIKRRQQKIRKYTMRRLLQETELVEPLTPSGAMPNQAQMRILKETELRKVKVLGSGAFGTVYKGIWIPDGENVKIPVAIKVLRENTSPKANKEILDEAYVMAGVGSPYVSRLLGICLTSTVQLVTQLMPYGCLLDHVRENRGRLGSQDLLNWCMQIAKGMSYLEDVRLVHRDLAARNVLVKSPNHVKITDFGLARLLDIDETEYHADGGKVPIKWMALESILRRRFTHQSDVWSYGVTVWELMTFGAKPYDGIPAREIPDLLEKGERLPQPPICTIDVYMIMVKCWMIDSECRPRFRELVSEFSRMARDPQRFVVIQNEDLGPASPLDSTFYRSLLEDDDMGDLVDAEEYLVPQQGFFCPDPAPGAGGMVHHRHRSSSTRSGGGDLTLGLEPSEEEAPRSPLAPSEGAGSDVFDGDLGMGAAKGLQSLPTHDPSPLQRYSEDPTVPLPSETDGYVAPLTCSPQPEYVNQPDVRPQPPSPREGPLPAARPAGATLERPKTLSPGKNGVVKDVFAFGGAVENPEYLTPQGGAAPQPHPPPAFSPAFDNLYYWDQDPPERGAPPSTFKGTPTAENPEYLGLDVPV
row,Compound,inhibition at 1 µM [%]
1,"FC(F)(F)c1ccc(C=Cc2nc(COc3ccc(CCCCn4ccnn4)nn3)co2)cc1 [example 2, 3-(4-[1,2,3]Triazol-1-yl-butyl)-6-{2-[2-(4-trifluoromethyl-phenyl)-vinyl]-oxazol-4-ylmethoxy}-pyridazine]",79.8
2,"FC(F)(F)c1ccc(C=Cc2nc(COc3ncc(CCCCn4ccnn4)cn3)co2)cc1 [example 4, 5-(4-[1,2,3]Triazol-1-yl-butyl)-2-{2-[2-(4-trifluoromethyl-phenyl)-vinyl]-oxazol-4-ylmethoxy}-pyrimidine]",72.7
3,"FC(F)(F)c1ccc(C=Cc2nc(COc3cnc(CCCCn4ccnn4)cn3)co2)cc1 [example 7, 2-(4-[1,2,3]Triazol-1-yl-butyl)-5-{2-[2-(4-trifluoromethyl-phenyl)-vinyl]-oxazol-4-ylmethoxy}-pyrazine]",75.3
